For assay [1], the target named is T1, D4 human receptors (Homo sapiens, UniProt P21917).
T1 construct: expressed in transfected cells; host or cells: CHO cells
T1 sequence (P21917 1-419): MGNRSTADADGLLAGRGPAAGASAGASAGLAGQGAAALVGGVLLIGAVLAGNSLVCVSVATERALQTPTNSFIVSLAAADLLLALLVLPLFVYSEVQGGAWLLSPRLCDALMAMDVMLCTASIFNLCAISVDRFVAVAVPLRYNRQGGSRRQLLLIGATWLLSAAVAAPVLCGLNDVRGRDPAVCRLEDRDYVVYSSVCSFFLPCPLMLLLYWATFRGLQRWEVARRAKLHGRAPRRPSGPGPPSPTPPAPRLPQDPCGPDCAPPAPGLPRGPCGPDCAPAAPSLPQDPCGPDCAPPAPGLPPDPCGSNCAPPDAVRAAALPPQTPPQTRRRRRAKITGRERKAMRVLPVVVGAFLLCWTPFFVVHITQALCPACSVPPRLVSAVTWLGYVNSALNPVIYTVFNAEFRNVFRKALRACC
Description: D4 Radioligand Receptor Binding Assay ([3H] YM-09151-2, CHO cell membranes). The note with it: compound 10^−7 M, singlicate, [3H] YM-09151-2 0.15-0.25 nM. The method in brief:
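Membranes from CHO cells expressing human D4 receptor incubated with [3H] YM-09151-2 (0.15-0.25 nM) and compound at one concentration (10^−7 M, singlicate) for 120 min at 27° C, then filtered.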

The target in assay [2] is T2, 5-HT1A (Homo sapiens, UniProt P08908).
T2 sequence (P08908 1-422): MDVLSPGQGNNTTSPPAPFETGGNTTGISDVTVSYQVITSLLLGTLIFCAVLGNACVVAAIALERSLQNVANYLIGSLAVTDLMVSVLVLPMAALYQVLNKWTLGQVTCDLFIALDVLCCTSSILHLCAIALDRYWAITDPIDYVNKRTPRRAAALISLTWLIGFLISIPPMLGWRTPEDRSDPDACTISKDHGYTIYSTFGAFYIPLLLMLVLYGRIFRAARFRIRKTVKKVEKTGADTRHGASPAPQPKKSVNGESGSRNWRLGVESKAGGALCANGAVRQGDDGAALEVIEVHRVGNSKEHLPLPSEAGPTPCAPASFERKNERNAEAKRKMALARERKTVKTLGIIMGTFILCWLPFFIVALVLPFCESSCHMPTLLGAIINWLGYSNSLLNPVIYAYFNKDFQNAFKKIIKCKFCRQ
The assay is described as follows: 5-HT1 Functional Assay (cAMP) in CHO/5-HT1A cells. Format: cell-based. On the set-up: expressed in transfected cells; host or cells: CHO/5-HT1A cells. The protocol: 5-HT1 Functional Assay (cAMP)
CHO/5-HT1A cells were random seeded at a density of about 200,000/well in 24 well plates the day prior to the experiment. On the day of the experiment, cells were pretreated for 15 minutes at 37° C. with 500 μM isobutylmethylxantine (IBMX) dissolved in culture medium without serum. Wells were then divided in different groups in duplicate as follows: control, 10 μM FSK, 10 μM FSK+1 μM 5-HT as positive standard and 10 μM FSK+10 μM of the different compound under evaluation. Sample solutions were added and incubated for additional 15 minutes at 37° C. After incubation, the medium was aspirated and the reaction stopped by adding 200 μl of lysis buffer. Plates were shaken for 5 minutes, then the lysate was removed and samples were stored at 4° C. until the day of the assay. For the cAMP evaluation, samples were properly diluted and the cAMP content was measured by an enzyme immunoassay system.

For orientation: inhibition means the drop in the measured response relative to a control, in per cent. A higher inhibition goes with strong suppression. Compound `CCNC(=O)OCCn1c(=O)n(CCN2CCN(c3cccc(C)c3C)CC2)c2ccccc21` [Compound 215] came in with an inhibition at 0.1 µM in assay [1] of 48%. This compound showed an inhibition at 10 µM in assay [2] of 83%.

The record behind these values is patent US6521623B1, “N,N'-disubstituted benzimidazolone derivatives with affinity at the serotonin and dopamine receptors” (Boehringer Ingelheim Pharma KG, priority 2000, dated 2003).
